# In paper PMC2772130 (Chemical research in toxicology, 2008):
# Tests used:
# P450 1B1 [1] = target: T1, P450 1B1 (Homo sapiens, UniProt Q16678); experiment: Quenching of P450 1B1; type: binding; conditions: extrapolated % quenching; 1.0 μM P450 1B1
# T1 sequence (Q16678 1-543): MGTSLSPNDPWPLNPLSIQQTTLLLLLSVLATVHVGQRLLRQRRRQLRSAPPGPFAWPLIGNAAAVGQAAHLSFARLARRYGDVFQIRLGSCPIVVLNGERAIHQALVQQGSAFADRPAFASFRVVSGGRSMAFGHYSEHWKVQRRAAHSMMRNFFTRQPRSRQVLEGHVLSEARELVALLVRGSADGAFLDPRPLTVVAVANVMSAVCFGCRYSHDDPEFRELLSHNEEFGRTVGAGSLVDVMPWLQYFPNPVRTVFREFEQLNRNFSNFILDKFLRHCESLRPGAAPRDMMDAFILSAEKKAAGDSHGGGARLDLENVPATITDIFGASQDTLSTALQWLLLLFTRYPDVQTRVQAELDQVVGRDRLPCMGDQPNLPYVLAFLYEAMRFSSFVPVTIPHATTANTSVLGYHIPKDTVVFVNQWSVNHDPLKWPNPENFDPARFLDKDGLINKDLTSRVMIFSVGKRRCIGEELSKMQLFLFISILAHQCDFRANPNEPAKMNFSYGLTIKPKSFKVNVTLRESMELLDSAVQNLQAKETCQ
# P450 1B1 [2] = target: T1, P450 1B1
# P450 1B1 [3] = target: T1, P450 1B1; conditions: cited from earlier work
# P450 1A1 [4] = target: T2, P450 1A1 (Homo sapiens, UniProt P04798); conditions: cited from earlier work
# T2 sequence (P04798 1-512): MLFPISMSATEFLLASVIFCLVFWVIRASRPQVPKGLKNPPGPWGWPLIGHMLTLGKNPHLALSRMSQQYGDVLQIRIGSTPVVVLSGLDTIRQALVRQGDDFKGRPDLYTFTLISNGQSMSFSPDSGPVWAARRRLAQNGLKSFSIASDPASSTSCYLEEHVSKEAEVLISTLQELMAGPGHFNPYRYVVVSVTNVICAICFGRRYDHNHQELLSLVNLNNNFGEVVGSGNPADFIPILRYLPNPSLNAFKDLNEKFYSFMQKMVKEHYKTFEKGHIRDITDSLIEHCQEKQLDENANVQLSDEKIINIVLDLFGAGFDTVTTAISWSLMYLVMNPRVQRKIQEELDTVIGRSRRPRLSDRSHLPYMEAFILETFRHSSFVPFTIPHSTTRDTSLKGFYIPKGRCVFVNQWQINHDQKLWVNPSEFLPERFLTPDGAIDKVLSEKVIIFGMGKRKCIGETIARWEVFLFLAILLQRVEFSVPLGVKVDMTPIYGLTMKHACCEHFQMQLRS
# P450 1B1 [5] = target: T1, P450 1B1; experiment: Spectral binding titrations with purified P450 1B1; conditions: for wavelengths (peak/trough): 1 μM P450 1B1, pH 7.4
# P450 1A1 [6] = target: T2, P450 1A1; experiment: Quenching of inhibitor-derived fluorescence with P450 1A1; conditions: enzyme and inhibitor 10 nM; 25 °C
# P450 1A2 [7] = target: T3, P450 1A2 (Homo sapiens, UniProt P05177); experiment: Quenching of inhibitor-derived fluorescence with P450 1A2; conditions: enzyme and inhibitor 10 nM; 25 °C
# T3 sequence (P05177 1-516): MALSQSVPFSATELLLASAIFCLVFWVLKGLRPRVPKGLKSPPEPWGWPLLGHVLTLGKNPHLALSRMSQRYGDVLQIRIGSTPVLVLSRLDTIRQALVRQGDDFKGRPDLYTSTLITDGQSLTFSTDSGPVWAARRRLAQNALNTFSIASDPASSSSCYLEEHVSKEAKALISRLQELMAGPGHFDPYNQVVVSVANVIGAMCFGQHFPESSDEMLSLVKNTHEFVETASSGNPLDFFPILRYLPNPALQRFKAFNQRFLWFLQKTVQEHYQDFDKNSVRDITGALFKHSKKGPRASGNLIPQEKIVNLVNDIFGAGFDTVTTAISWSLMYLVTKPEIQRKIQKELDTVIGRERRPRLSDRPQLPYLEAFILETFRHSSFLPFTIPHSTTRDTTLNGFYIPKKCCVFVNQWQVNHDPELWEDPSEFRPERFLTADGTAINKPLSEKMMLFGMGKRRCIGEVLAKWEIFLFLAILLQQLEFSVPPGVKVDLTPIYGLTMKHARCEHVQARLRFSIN
# P450 1B1 [8] = target: T1, P450 1B1; experiment: Quenching of PAH; conditions: for half-maximal time (t1/2) to decrease B[a]P emission: 10 nM P450 1B1, 25 °C
# P450 1B1 [9] = target: T1, P450 1B1; experiment: Inhibition of P450 1B1-dependent 7-ethoxyresorufin O-deethylation; conditions: for IC50: inhibition of EROD activity IC50, 15 s of incubation time (direct and direct/restore inhibitors), means and SE
# P450 1A1 [10] = target: T2, P450 1A1; experiment: Inhibition of P450 1A1-dependent EROD activity; type: biochemical; conditions: for fold increase in EROD Km of P450 1A1: 1PP 66 nM, 3PPh 333 nM
# P450 1A2 [11] = target: T3, P450 1A2; experiment: Inhibition of P450 1A2-dependent EROD activity; type: biochemical; conditions: 37 °C
# P450 1A1 [12] = target: T2, P450 1A1; experiment: Quenching of P450 fluorescence with inhibitors, P450 1A1; type: binding
# P450 1A2 [13] = target: T3, P450 1A2; experiment: Quenching of P450 fluorescence with inhibitors, P450 1A2; type: binding
# P450 1A2 [14] = target: T3, P450 1A2; conditions: cited from earlier work
Structure (SMILES),PAH binding to P450 1B1 Bmax (P450 1B1 [1]) [%],ΔAmax / Ks (P450 1B1 [2]),mechanism of inhibition of P450 1B1 (P450 1B1 [3]),mechanism of inhibition of P450 1A1 (P450 1A1 [4]),Kd (P450 1B1 [5]) [µM],wavelengths (peak/trough) (P450 1B1 [5]),Kd (P450 1B1 [8]) [µM],IC50 (P450 1B1 [9]) [µM],mechanism of inhibition of P450 1A2 EROD activity (P450 1A2 [11]),Kd (P450 1A1 [12]) [µM],Kd (P450 1A2 [13]) [µM],also measured
"C#Cc1ccc2ccc3cccc4ccc1c2c34 [1EP, 1-ethynylpyrene]",74 ± 1,0.017,direct inhibitors,mechanism-based manner,2.9 ± 1,416/383,0.0019 to 0.018,0.031 ± 0.004,–,–,–,fluorescence quenching with P450 1A1 (P450 1A1 [6]): to a lesser extent with P450 1A1 than 1B1; interaction with P450 1A2 (fluorescence quenching) (P450 1A2 [7]): No interactions
"CC#Cc1ccc2ccc3cccc4ccc1c2c34 [1PP, 1-(1-propynyl)pyrene]",69 ± 1,0.016,direct inhibitors,mechanism-based manner,2.7 ± 0.4,416/383,0.0019 to 0.018,0.022 ± 0.003,mechanism-based manner,~10,~10,"fold increase in EROD Km of P450 1A1 (P450 1A1 [10]; at 360 s): 10 fold; fold increase in EROD Km of P450 1A1 (P450 1A1 [10]; initial incubation time): ~ 8 fold; mechanism of inhibition of P450 1A1 EROD activity (P450 1A1 [10]; 37 °C, 30 min): mechanism-based inhibitors; EROD kcat of P450 1B1 relative to controls (P450 1B1 [9]; 1PP 66 nM, 3PPh 33 nM, after 6 min of incubation): 44%; fold increase in EROD Km of P450 1B1 (P450 1B1 [9]; 1PP 66 nM, 3PPh 33 nM, at 15 s): 6.8 fold; EROD kcat of P450 1B1 relative to control, first decrease (P450 1B1 [9]; initial stage of incubation): ~ one-fifth"
"c1ccc2c(c1)cc1ccc3cccc4ccc2c1c34 [B[a]P, benzo[a]pyrene]",–,–,–,–,–,–,0.011,0.031 ± 0.004,"directly inhibited by low concentration of B[a]P, but the inhibition was increased with time at higher B[a]P concentrations",~10,~10,mechanism of inhibition of P450 1A2 (P450 1A2 [14]): mechanism-based manner; half-maximal time (t1/2) to decrease B[a]P emission (P450 1B1 [8]; 2.5 nM B[a]P): 33 s; half-maximal time (t1/2) to decrease B[a]P emission (P450 1B1 [8]; 5 nM B[a]P): 15 s; half-maximal time (t1/2) to decrease B[a]P emission (P450 1B1 [8]; 10 nM B[a]P): 7.5 s
